Experimental data from BindingDB's records for patent US20250129104 (Biosplice Therapeutics, 2025).

The compounds below were run against Dual specificity tyrosine-phosphorylation-regulated kinase 1A (Homo sapiens, UniProt Q13627) (assay: DYRK1A Kinase Assay).
Experimental: Each compound was dissolved in DMSO as a 10 mM stock and used to prepare compound source plates. Serial dilution (1:3, 11-point dose-response curves from 10 μM to 0.00016 μM) and compound transfer was performed using the ECHO 550 (Labcyte, Sunnyvale, CA) into 1536-well black-walled round bottom plates (Corning).The DYRK1A kinase assay was run using the Ser/Thr 18 peptide Z-lyte assay kit according to manufacturer's instructions (Life Technologies—a Division of Thermo-Fisher). This is a non-radioactive assay using fluorescence resonance energy transfer (FRET) between coumarin and fluorescein to detect kinase activity which is represented as a ratio of coumarin emission/fluorescein emission.Briefly, recombinant DYRK1A kinase, ATP and Ser/Thr peptide 18 were prepared in 1× Kinase buffer to final concentrations of 0.25 μg/mL, 15 μM, and 4 μM respectively. The mixture was allowed to incubate with the representative compounds for one hour at room temperature. All reactions were performed in duplicate. Unphosphorylated (“0% Control”) and phosphorylated (“100% control”) forms of Ser/Thr 18 served as control reactions. Additionally, an 11-point dose-response curve of Staurosporine (1 uM top) was run to serve as a positive compound control.After incubation, Development Reagent A was diluted in Development Buffer then added to the reaction and allowed to further incubate for one hour at room temperature. The plate was read at Ex 400 Em 455 to detect the coumarin signal and Ex 400 Em 520 to measure the signal (EnVision Multilabel Plate Reader, PerkinElmer).

| Structure (SMILES) | EC50 [nM] |
| --- | --- |
| C[C@]1(O)CC[C@H](Nc2ncc3c(-c4ccn5nccc5c4)c[nH]c3n2)CC1 [US20250129104, Compound 2238] | 35.2 |
| COc1nc(N[C@H](C)C(F)(F)F)c2c(-c3ccc4nc(C)n(CC(F)F)c4n3)c[nH]c2n1 [US20250129104, Compound 2817] | 5440 |
| COc1nc(N[C@H]2CC[C@@](C)(O)CC2)nc2[nH]cc(-c3ccc4ncnn4c3)c12 [US20250129104, Compound 3053] | 1.4 |
